Experimental data as given in patent publication US10703746B2, “Mutant IDH1 inhibitors useful for treating cancer” (THE UNITED STATES OF AMERICA, AS REPRESENTED BY THE …, priority 2014, dated 2020).

Legend:
IDH1 R132C = IDH1 R132C (Homo sapiens, UniProt O75874, R132C); assay: IDH1 R132C enzymatic assay (NADPH depletion coupled to diaphorase/resazurin); assay type: biochemical; details: IDH1 R132C enzymatic inhibition, IC50 class
Procedure: (§1) Assays were conducted in a 1536-well black solid-bottom plate with a final assay volume of 9 μL.
For IDH1 R132C, 3 μL of enzyme (0.00032 mg/mL IDH1 […], 10% glycerol, 50 mM potassium phosphate pH 6.5, 5 mM MgCl2, 0.03% BSA) were added to the plate, followed by the addition of 23 nL of test compound in DMSO. The plate was lidded and incubated at room temperature for 30 minutes at which time 3 μL of substrate were added (0.012 mM NADPH, 0.6 mM α-KG, 10% glycerol, 50 mM potassium phosphate pH 6.5, 5 mM MgCl2, 0.03% BSA). […]

IDH1 R132H = IDH1 R132H (Homo sapiens, UniProt O75874, R132H); assay: IDH1 R132H enzymatic assay (NADPH depletion coupled to diaphorase/resazurin); assay type: biochemical; details: IDH1 R132H enzymatic inhibition, IC50 class
Procedure: as §1
Specifically, for IDH1 R132H, 3 μL of enzyme (4 mM β-ME, 0.0005 mg/mL IDH1 R132H, 150 mM NaCl, 20 mM Tris pH 7.5, 10 mM MgCl2, 0.05% BSA) were added to the plate, followed by the addition of 23 nL of test compound in DMSO. The plate was lidded and incubated at room temperature for 30 minutes at which time 3 μL of substrate were added (0.016 mM NADPH, 2 mM α-KG, 150 mM NaCl, 20 mM Tris pH 7.5, 10 mM MgCl2, 0.05% BSA). This reaction was incubated at room-temperature for 60 minutes at which time the detection mix was added (0.06 mg/mL diaphorase, 0.036 mM resazurin, 150 mM NaCl, 20 mM Tris pH 7.5, 10 mM MgCl2, 0.05% BSA). […]

IDH1 R132H, sequence (O75874 whole entry R132H): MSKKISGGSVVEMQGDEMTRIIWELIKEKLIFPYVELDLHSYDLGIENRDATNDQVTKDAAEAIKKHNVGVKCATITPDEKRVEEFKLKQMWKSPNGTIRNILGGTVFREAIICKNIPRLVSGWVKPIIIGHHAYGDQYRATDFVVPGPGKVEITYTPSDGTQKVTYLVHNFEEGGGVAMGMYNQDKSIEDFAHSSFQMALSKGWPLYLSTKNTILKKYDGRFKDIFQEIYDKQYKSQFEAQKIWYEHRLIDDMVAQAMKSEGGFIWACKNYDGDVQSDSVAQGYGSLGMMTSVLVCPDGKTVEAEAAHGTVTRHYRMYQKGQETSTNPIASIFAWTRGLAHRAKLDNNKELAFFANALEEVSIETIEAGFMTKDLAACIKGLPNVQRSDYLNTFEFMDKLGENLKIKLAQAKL
IDH1 R132C, sequence (O75874 whole entry R132C): as the sequence (O75874 whole entry R132H) above, with H132C counted along it

IC50 (IDH1 R132C)	IC50 (IDH1 R132H)	SMILES
1000 to 5000 nM	5 to 20 µM	CCc1cccc(CC)c1-n1c(C)c(C(=O)NC2CCCC(N)C2)cc(-c2nc(-c3ccc(Cl)cc3)cs2)c1=O (mixture of isomers) [Compound 126]
300 to 1000 nM	> 20 µM	CC1(C)CC(=O)c2cc(-c3nc(-c4ccc(Cl)cc4)cs3)c(=O)n(-c3ccccc3OCc3ccccc3)c2C1 [Compound 1]
300 to 1000 nM	1 to 5 µM	CCc1cccc(CC)c1-n1c(CC(C)C)c(C(=O)N2CCN[C@H](C(=O)OC)C2)cc(-c2nc(-c3ccc(Cl)cc3)cs2)c1=O [Compound 2]
> 20000 nM	> 20 µM	CCOC(=O)c1cc(-c2nc(-c3ccc(Cl)cc3)cs2)c(=O)n(-c2c(CC)cccc2CC)c1-c1ccccc1 [Compound 3]
300 to 1000 nM	< 0.3 µM	CCc1cccc(CC)c1-n1c(CC(C)C)c(C(=O)NCCO)cc(-c2nc(-c3ccc(Cl)cc3)cs2)c1=O [Compound 4]
5000 to 20000 nM	5 to 20 µM	CC1(C)CC(=O)c2cc(-c3nc(-c4ccc(Cl)cc4)cs3)c(=O)n(-c3ccccc3CN)c2C1 [Compound 5]
1000 to 5000 nM	1 to 5 µM	CCc1cccc(CC)c1-n1c(C)c(C(=O)NCCCN)cc(-c2nc(-c3ccc(Cl)cc3)cs2)c1=O [Compound 6]
1000 to 5000 nM	> 20 µM	CCc1cccc(CC)c1-n1c(C)c(C(=O)NC2CCCC2)cc(-c2nc(-c3ccc(Cl)cc3)cs2)c1=O [Compound 7]
< 300 nM	< 0.3 µM	CCc1cccc(CC)c1-n1c(CC(C)C)c(C(=O)N2CCN[C@@H](CO)C2)cc(-c2nc(-c3ccc(Cl)cc3)cs2)c1=O [Compound 8]
300 to 1000 nM	1 to 5 µM	CC1(C)CC(=O)c2cc(-c3nc(-c4ccc(Cl)cc4)cs3)c(=O)n(-c3ccccc3OC(F)(F)F)c2C1 [Compound 9]
< 300 nM	0.3 to 1 µM	CCc1cccc(CC)c1-n1c(CC(C)C)c(C(=O)N[C@H](CO)c2ccccc2)cc(-c2nc(-c3ccc(Cl)cc3)cs2)c1=O [Compound 10]
5000 to 20000 nM	> 20 µM	CC(c1ccccc1)n1c2c(cc(-c3nc(-c4ccc(Cl)cc4)cs3)c1=O)C(=O)CC(C)(C)C2 (stereo not shown) [Compound 11]
1000 to 5000 nM	1 to 5 µM	COc1ccccc1-n1c2c(cc(-c3nc(-c4ccc(Cl)cc4)cs3)c1=O)C(=O)CC(C)(C)C2 [Compound 12]
1000 to 5000 nM	> 20 µM	Cc1noc(C)c1-n1c2c(cc(-c3nc(-c4ccc(Cl)cc4)cs3)c1=O)C(=O)CC(C)(C)C2 [Compound 13]
5000 to 20000 nM	1 to 5 µM	CCc1cccc(CC)c1-n1c(CC(C)C)c(C(=O)O)cc(-c2nc(-c3ccc(Cl)cc3)cs2)c1=O [Compound 14]
< 300 nM	1 to 5 µM	CCc1cccc(CC)c1-n1c(C)c(C(=O)NCCNC)cc(-c2nc(-c3ccc(Cl)cc3)cs2)c1=O [Compound 15]
300 to 1000 nM	1 to 5 µM	CCc1cccc(CC)c1-n1c(C)c(C(=O)N2CCN[C@H](CO)C2)cc(-c2nc(-c3ccc(Cl)cc3)cs2)c1=O [Compound 16]
5000 to 20000 nM	5 to 20 µM	Cc1cccc(CN2CCN(C)CC2)c1-n1c2c(cc(-c3nc(-c4ccc(Cl)cc4)cs3)c1=O)C(=O)CC(C)(C)C2 [Compound 17]
1000 to 5000 nM	5 to 20 µM	CCc1cccc(CC)c1-n1c(C)c(C(=O)NC2CCCC(O)C2)cc(-c2nc(-c3ccc(Cl)cc3)cs2)c1=O (stereo not shown) [Compound 18]
300 to 1000 nM	> 20 µM	CC1(C)CC(=O)c2cc(-c3nc(-c4ccc(Cl)cc4)cs3)c(=O)n(C3CCCc4ccccc43)c2C1 (stereo not shown) [Compound 19]
< 300 nM	0.3 to 1 µM	CCc1cccc(CC)c1-n1c(CC(C)C)c(C(=O)N[C@@H](CO)c2ccccc2)cc(-c2nc(-c3ccc(Cl)cc3)cs2)c1=O [Compound 20]
1000 to 5000 nM	0.3 to 1 µM	CCc1cccc(CC)c1-n1c(C)c(C(=O)N2CCN[C@@H](C(=O)O)C2)cc(-c2nc(-c3ccc(Cl)cc3)cs2)c1=O [Compound 21]
300 to 1000 nM	1 to 5 µM	Cc1ccccc1-n1c2c(cc(-c3nc(-c4ccc(Cl)cc4)cs3)c1=O)C(=O)CC(C)(C)C2 [Compound 22]
5000 to 20000 nM	> 20 µM	COc1ccc(OC)c(-n2c3c(cc(-c4nc(-c5ccc(Cl)cc5)cs4)c2=O)C(=O)N(C(=O)OC(C)(C)C)CC3)c1 [Compound 23]
5000 to 20000 nM	> 20 µM	COc1ccc(OC)c(-n2c3c(cc(-c4nc(-c5ccc(Cl)cc5)cs4)c2=O)C(=O)CC3)c1 [Compound 24]

IC50 (IDH1 R132C)	IC50 (IDH1 R132H)	SMILES
300 to 1000 nM	1 to 5 µM	CC1(C)CC(=O)c2cc(-c3nc(-c4ccc(Cl)cc4)cs3)c(=O)n(-c3ccccc3OC3CC3)c2C1 [Compound 25]
1000 to 5000 nM	1 to 5 µM	Cc1ccc(N)cc1-n1c2c(cc(-c3nc(-c4ccc(Cl)cc4)cs3)c1=O)C(=O)CC(C)(C)C2 [Compound 26]
5000 to 20000 nM	5 to 20 µM	COc1ccc(C(=O)O)cc1-n1c2c(cc(-c3nc(-c4ccc(Cl)cc4)cs3)c1=O)C(=O)CC(C)(C)C2 [Compound 27]
< 300 nM	< 0.3 µM	CCc1cccc(CC)c1-n1c(C(C)C)c(C(=O)N2CCN[C@@H](C(=O)O)C2)cc(-c2nc(-c3ccc(Cl)cc3)cs2)c1=O [Compound 28]
1000 to 5000 nM	1 to 5 µM	CCc1cccc(CC)c1-n1c(CC(C)C)c(C(=O)NC[C@@H](NC(C)=O)C(=O)O)cc(-c2nc(-c3ccc(Cl)cc3)cs2)c1=O [Compound 29]
300 to 1000 nM	0.3 to 1 µM	CC1(C)CC(=O)c2cc(-c3nc(-c4ccc(F)cc4)cs3)c(=O)n(-c3ccccc3C(F)(F)F)c2C1 [Compound 30]
300 to 1000 nM	1 to 5 µM	CCc1cccc(CC)c1-n1c(C(C)C)c(C(=O)N2CCNC(C(=O)OC)C2)cc(-c2nc(-c3ccc(Cl)cc3)cs2)c1=O (stereo not shown) [Compound 31]
300 to 1000 nM	0.3 to 1 µM	CCc1cccc(CC)c1-n1c(C(C)C)c(C(=O)NC)cc(-c2nc(-c3ccc(Cl)cc3)cs2)c1=O [Compound 32]
< 300 nM	0.3 to 1 µM	CCc1cccc(CC)c1-n1c(CC(C)C)c(C(=O)NC)cc(-c2nc(-c3ccc(Cl)cc3)cs2)c1=O [Compound 33]
300 to 1000 nM	1 to 5 µM	CCc1cccc(CC)c1-n1c(CC(C)C)c(C(=O)N2CCCC(CO)C2)cc(-c2nc(-c3ccc(Cl)cc3)cs2)c1=O (stereo not shown) [Compound 34]
1000 to 5000 nM	1 to 5 µM	CCc1cccc(CC)c1-n1c(C(C)C)c(C(=O)NC2CCNCC2)cc(-c2nc(-c3ccc(Cl)cc3)cs2)c1=O [Compound 35]
> 20000 nM	> 20 µM	CCc1cccc(CC)c1-n1c(C)c(C(=O)N2CCC(C(=O)O)C2)cc(-c2nc(-c3ccc(Cl)cc3)cs2)c1=O (stereo not shown) [Compound 36]
300 to 1000 nM	1 to 5 µM	CCc1cccc(CC)c1-n1c(C(C)C)c(C(=O)N2CCNC[C@H]2C)cc(-c2nc(-c3ccc(Cl)cc3)cs2)c1=O [Compound 37]
300 to 1000 nM	< 0.3 µM	CCc1cccc(CC)c1-n1c(C)c(C(=O)N2CCN[C@@H](C)C2)cc(-c2nc(-c3ccc(Cl)cc3)cs2)c1=O [Compound 38]
5000 to 20000 nM	5 to 20 µM	CCc1cccc(CC)c1-n1c(CC(C)C)c(C(=O)N2CCNCC2)cc(-c2nc(-c3ccc(OCc4ccccc4)cc3)c(C)s2)c1=O [Compound 39]
1000 to 5000 nM	5 to 20 µM	CCc1cccc(CC)c1-n1c(C)c(C(=O)N2CCN[C@H](C(=O)OC)C2)cc(-c2nc(-c3ccc(Cl)cc3)cs2)c1=O [Compound 41]
1000 to 5000 nM	1 to 5 µM	CNc1ccccc1-n1c2c(cc(-c3nc(-c4ccc(Cl)cc4)cs3)c1=O)C(=O)CC(C)(C)C2 [Compound 42]
< 300 nM	0.3 to 1 µM	CCc1cccc(CC)c1-n1c(CC(C)C)c(C(=O)N2CCNCC2C)cc(-c2nc(-c3ccc(Cl)cc3)cs2)c1=O (stereo not shown) [Compound 43]
1000 to 5000 nM	1 to 5 µM	CCCCc1ccc(-c2nc(-c3cc(C(=O)N4CCNCC4)c(CC(C)C)n(-c4c(CC)cccc4CC)c3=O)sc2C)cc1 [Compound 44]
1000 to 5000 nM	1 to 5 µM	COc1cccc(C(=O)O)c1-n1c2c(cc(-c3nc(-c4ccc(Cl)cc4)cs3)c1=O)C(=O)CC(C)(C)C2 [Compound 46]
1000 to 5000 nM	1 to 5 µM	CCc1cccc(CC)c1-n1c(C(C)C)c(C(=O)N[C@H](C)CO)cc(-c2nc(-c3ccc(Cl)cc3)cs2)c1=O [Compound 47]
< 300 nM	0.3 to 1 µM	CCc1cccc(CC)c1-n1c(CC(C)C)c(C(=O)N2CCNC(C(N)=O)C2)cc(-c2nc(-c3ccc(Cl)cc3)cs2)c1=O (stereo not shown) [Compound 48]
< 300 nM	< 0.3 µM	CC1(C)CC(=O)c2cc(-c3nc(-c4ccc(Cl)cc4)cs3)c(=O)n(-c3ccccc3Oc3ccccc3)c2C1 [Compound 49]
300 to 1000 nM	0.3 to 1 µM	CC1(C)CC(=O)c2cc(-c3nc(-c4ccc(Cl)cc4)cs3)c(=O)n(-c3ccccc3C3CC3)c2C1 [Compound 50]
1000 to 5000 nM	> 20 µM	CC(C)Sc1ccccc1-n1c2c(cc(-c3nc(-c4ccc(Cl)cc4)cs3)c1=O)C(=O)CC(C)(C)C2 [Compound 51]
